Results taken from PMC9382192, “Combined treatment with epigenetic agents enhances anti-tumor activity of MAGE-D4 peptide-specific T cells by upregulating the MAGE-D4 expression in glioma” (Frontiers in Oncology, 2022).

Key:
Assay type in all cases: cell-based, human
HLA-A2 = HLA-A2 expression in U87; details: TSA 1 μM 24 h
Protocol: The human glioma cell lines (U87-MG and U251) were obtained from the Cell Bank of Type Culture Collection of the Chinese Academy of Science (Shanghai, China). […] A3656), valproic acid (VPA, CAS No. 99-66-1), and trichostatin A (TSA, CAS No. 58880-19-6) were purchased from Sigma-Aldrich Corporation (St. Louis, MO, USA). DAC and TSA were dissolved in DMSO to a concentration of 10 mM. Aliquots were stored at -80°C and diluted with media before being used. Drug treatments were divided into seven groups: (1) DAC group: cells were cultured in medium on the presence of 1 μM DAC for 120 h; (2) VPA group: cells were grown in medium containing 1 mM VPA for 120 h; (3) TSA group: cells were cultured in medium supplemented with 1 μM TSA for 24 h; (4) D + V group: cells were cultured with 1 μM DAC and 1 mM VPA for 120 h; (5) D + T group: cells were cultured with 1 μM DAC for 120 h, followed by 1 μM TSA for 24 h; (6) Control group: cells were cultured with 0.09% DMSO, which is the highest concentration of DMSO used in this study in consideration of the potential toxicity of DMSO to living cells. […] The cells were then harvested, washed with PBS buffer three times, and analyzed by a FACScan flow cytometer (BD Biosciences, Franklin Lakes, NJ, USA) using BD AccuriTM C6 Software (BD Biosciences).

IL-2 = IL-2 ELISA of DC/T-cell co-culture supernatant; details: 72 h co-culture supernatant, versus negative control peptide
Protocol: (§1) Production of cytokines in the supernatants was determined using commercially available ELISA kits (Cloud-Clone Corporation, Wuhan, China) according to the protocol of the manufacturer. Approximately 50 μl of supernatant and different concentration standards were added and mixed with 100 μl of horseradish peroxidase (HRP) labeled detection antibody against a 96-well plate, respectively, except for the blank control. After incubation at 37°C for 60 min, we washed the plate five times. Add substrate A and substrate B 50 μl respectively, incubate for 15min in a 37°C incubator in dark. Then, 50 μl of stop solution was added and a 450 nm absorbance value (OD value) was measured within 15 min. The regression equation of the standard curve is calculated according to the concentration of the standard substance and the OD value, and the corresponding sample concentration is calculated on the basis of the regression equation.

IFN-γ = IFN-γ ELISA of DC/T-cell co-culture supernatant; details: 72 h co-culture supernatant, compared to T cells alone
Protocol: as §1

Row | Compound | HLA-A2 levels (HLA-A2) | IL-2 secreted by DC-stimulated T cells (IL-2) | IFN-γ secretion by T cells (ELISA) (IFN-γ)
1 | CC(/C=C/C(=O)NO)=C\[C@@H](C)C(=O)c1ccc(N(C)C)cc1 [TSA, trichostatin A] | elevated HLA-A2 levels with statistical significance | – | –
2 | CLPPPNVIL [Peptide P8] | – | higher IL-2 | high levels of IFN-γ
